Source: patent US11229680B2, “Autophagy inhibitors” (The Hong Kong University of Science and Technology, priority 2017, dated 2022)
Entries after “also recorded” stand apart in the source; their conditions may differ.

What was measured:
[1] = system: GABARAP; test: ITC binding to GABARAP; parameters: species or system human; settings: for selectivity towards GABARAP proteins (in words): GABARAP versus LC3, FIGS. 2E and 4C
[2] = system: GABARAP-positive puncta in COS7 cells; test: GABARAP-positive puncta in starved COS7 cells; type: cell-based; settings: COS7 cells over-expressing mCherry-tagged peptide, nutrients deprivation
Text: (§1) We used the well-established cultured COS7 cells for assessing autophagy inhibitions by the AnkB/G LIR peptides over-expressed in the cells. We quantified the numbers of endogenous LC3- or GABARAP-positive puncta, which represent LC3 or GABARAP-containing autophagic structures, as readouts to quantify autophagy inhibitions (Klionsky et al., 2016; Mizushima et al., 2010). After nutrients deprivation, obvious accumulations of LC3- or GABARAP-positive puncta could be observed in cells over-expressing mCherry only, indicating induction of autophagy by starvation (FIG. 6C6&E6). […] In contrast, expression of the mCherry-AnkB WR peptide had no impact on the LC3- or GABARAP-puncta numbers (i.e. with the same puncta numbers as expressing the mCherry vector control; FIG. 6C-F).

[3] = system: SQST-1::GFP; test: SQST-1::GFP aggregate accumulation in C. elegans expressing the peptides; type: in vivo
Text: We next determined whether the AnkB WT peptide blocks autophagy in C. elegans. Autophagy is required for degradation of a variety of protein substrates, including the C. elegans p62 homolog SQST-1 during development (Tian et al., 2010). In the wild type animals, SQST-1::GFP is weakly expressed and diffusely localized in the cytoplasm, while numerous SQST-1 aggregates accumulate in autophagy mutants (Tian et al., 2010). The AnkB WT peptide fused with the Cherry reporter (Cherry::AnkB WT) or Cherry::AnkB WR was expressed under the control of the nfya-1 promoter, which is expressed ubiquitously from the embryonic to adult stages. The expression plasmids were injected into animals carrying integrated SQST-1::GFP reporter (bpIs151) and transgenic lines were obtained and analyzed.
Similarly, we also tested the blocking effect of AnkG peptides in C. elegans. […] This observation is somewhat different from that in mammalian heterologous cells. This may be explained by the different roles of the two families in different organisms. In mammal, p62 degradation is dependent on LC3 but not GABARAP (Maruyama et al., 2014), so blocking GABARAP binding has minimal effect on p62 degradation. However, in C. elegans, LGG-1 acts upstream to LGG-2 (Manil-Segalen et al., 2014; Wu et al., 2015), so blocking either of them will lead to defect in SQST-1 degradation.
Although a large collection of autophagy mutants were isolated from genetic screens (Tian et al., 2010), assays to inhibit autophagy activity in a spatiotemporal manner are not available. We investigated whether the AnkB peptide can block autophagy in a tissue- and temporal-specific manner. The AnkB peptide was expressed under the control of tissue-specific promoters, including the promoter of myo-3 for body wall muscle cells, y37A1B.5 for hypodermal cells and vha-6 for intestinal cells. The expression constructs were injected into animals carrying the corresponding tissue-specific SQST-1::GFP expression integrated lines.
We also examined whether the AnkB peptide can impair autophagy in a temporal control manner. The expression of AnkB WT was driven by the promoter of col-19, which is expressed in hypodermal cells from the young adult stage onwards.

[4] = target: T1, LGG-2 (Caenorhabditis elegans, UniProt Q23536); test: ITC binding to purified LGG-2; parameters: species or system C. elegans
T1 sequence (Q23536 1-130): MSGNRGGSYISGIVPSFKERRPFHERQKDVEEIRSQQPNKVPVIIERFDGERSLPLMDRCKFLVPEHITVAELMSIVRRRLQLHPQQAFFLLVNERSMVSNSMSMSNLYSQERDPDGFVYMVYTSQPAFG
Text: (§2) C. elegans provides an ideal platform to study autophagy and especially to investigate roles of different members of Atg8 in autophagy, because worms contain both GABARAP and LC3 subfamily Atg8s and yet simple enough with one gene for each subfamily (worm lgg-1 and lgg-2 are […] of GABARAP and LC3, respectively). It has also been shown earlier on that lgg-1 and lgg-2 act non-redundantly in autophagy (Wu et al., 2015). Prior to performing autophagy assays in worms, we measured the bindings of various AnkB/G LIR peptides to purified LGG-1 and LGG-2 using the same method as we have described for FIGS. 1&3.

[5] = system: LC3-positive puncta in COS7 cells; test: LC3-positive puncta in starved COS7 cells; type: cell-based; settings: COS7 cells over-expressing mCherry-tagged peptide, nutrients deprivation
Text: as §1

[6] = target: LGG-1 (Caenorhabditis elegans, UniProt Q09490); test: ITC binding to purified LGG-1; parameters: species or system C. elegans
LGG-1, sequence (Q09490 1-116 limits assumed): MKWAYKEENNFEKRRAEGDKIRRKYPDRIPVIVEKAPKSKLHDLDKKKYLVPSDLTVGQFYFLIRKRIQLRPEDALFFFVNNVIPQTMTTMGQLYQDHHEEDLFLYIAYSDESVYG
Text: as §2

[7] = system: p62-positive puncta in COS7 cells; test: p62-positive puncta in starved COS7 cells; type: cell-based; settings: COS7 cells expressing mCherry-tagged peptide, starvation
Text: We further quantified the level of p62, one of the best studied selective autophagy substrates, to monitor the autophagic flux in COS7 cells expressing various AnkB/G LIR peptides under the starvation condition (Klionsky et al., 2016; Mizushima et al., 2010). Upon autophagy induction, p62 forms aggregates via its LIR motif-mediated interactions to Atg8s and subsequent incorporation into autophagosomes (Bjorkoy et al., 2005; Pankiv et al., 2007). Only a relatively low and steady level of p62 aggregates is formed if autophagy flux is normal (i.e. p62-positive autophagosomes are steadily cleared by fusing with lysosomes; (Bjorkoy et al., 2005)), and this is indeed the case when cells were expressed with the mCherry vector control (FIG. 7F). […] This is consistent with a previous siRNA-based study showing that knockdown of LC3 but not GABARAP causes p62 accumulation in COS7 cells (Maruyama et al., 2014). Taken together, the above cell-based assays reinforce our earlier conclusion derived from biochemical and structural studies, that the AnkB WT peptide can function as potent autophagy inhibitor by targeting all members of the Atg8 family and the AnkG WT or ER peptides can selectively target the GABARAPs and spare the LC3s.

[8] = target: LC3s (LC3A, LC3B, LC3C) (Homo sapiens); test: ITC binding to LC3s
[9] = system: C. elegans; test: C. elegans life span; type: in vivo
Text: Autophagy is known to regulate the adult worm aging process. […] The autophagy defect caused by AnkB was weaker than that in autophagy mutants.

[10] = system: C. elegans; test: C. elegans hatching and development; type: in vivo; settings: Pnfya-1::Cherry fusion
Text: Autophagy plays critical roles in various physiological processes occurring during development or in adult C. elegans (Zhang et al., 2015). Fewer autophagy mutants develop into larvae. […] 60.8% embryos expressing the AnkB WT peptide hatched, compared to 96.9% of embryos expressing AnkB WR (FIG. 8G). Autophagy mutants also grow slowly. […] Thus, the AnkB WT peptide blocks autophagy during C. elegans development.

[11] = mCherry::AnkG peptides, embryonic stage (FIG. 10B-D)

## E1599R modification of AnkB: AnkB LIR peptide with E1599R modification (VEEEWVIVSDERIEEARQKAPLEITEY; AnkB E1599R human recombinant peptide, prepared in the lab)
[1]
  selectivity towards GABARAP proteins (in words): increase in selectivity towards GABARAP proteins

## PEDDWTRFSSEEIREARQAAASHAPS (AnkG E1991R rat recombinant peptide, prepared in the lab) [modified from rat 480 kD AnkG residues 1985-2010]
[2]
  GABARAP-positive puncta number: potently inhibited
[3]; Cherry fusion, hyp7 promoter, epidermis, embryonic to adult stages
  SQST-1::GFP aggregates: caused accumulation of SQST-1::GFP aggregates
[3]; Phyp7::mCherry::AnkG peptides, hypodermis, L4 larvae
  SQST-1::GFP aggregates: a large number of SQST-1::GFP aggregates accumulate
[3]; [11]
  SQST-1::GFP aggregates: accumulation of SQST-1::GFP aggregates
[4]
  weaker affinity towards LGG-2 than LGG-1: ~1,000 fold
[5]
  LC3-positive puncta number: essentially no impact
[1]
  selectivity towards GABARAP proteins (in words): increase in selectivity towards GABARAP proteins
[1]; ITC
  binding to GABARAP (in words): slightly weaker affinity
[6]
  binding to LGG-1 (in words): retained strong binding
[7]
  p62-positive puncta versus mCherry vector control: no statistically significant increase

## AnkG W1989R: AnkG LIR with Trp1989 substituted by Arg; negative and specificity control (PEDDRTEFSSEEIREARQAAASHAPS; AnkG W1989R rat recombinant peptide, prepared in the lab)
[8]
  binding to LC3 (in words): dramatic weakening
[2]
  GABARAP-positive puncta number: did not see any noticeable changes
[3]; [11]
  SQST-1::GFP aggregates: no SQST-1::GFP aggregates
[5]
  LC3-positive puncta number: did not see any noticeable changes
[1]; ITC
  binding to GABARAP (in words): dramatic weakening
[7]
  p62-positive puncta versus mCherry vector control: neither of the AnkB/G WR peptides could induce p62-positive puncta increase

## E1996R modification of AnkG: AnkG LIR peptide with E1996R modification (PEDDWTEFSSERIREARQAAASHAPS; AnkG E1996R rat recombinant peptide, prepared in the lab)
[1]
  selectivity towards GABARAP proteins (in words): increase in selectivity towards GABARAP proteins

## AnkG LIR C-helix alone: AnkG LIR C-helix alone (aa 1993-2010) (SSEEIREARQQAAASQSP; UniProt Q12955 1993-2010, looked up, fragment)
[1]; ITC
  binding to GABARAP (in words): no detectable binding

## VEEEWVIVSDEEIEEARQKAPLEITEY [AnkB LIR, recombinant peptide from natural human 440 kD AnkB residues 1588-1614]
[2]
  GABARAP-positive puncta number: reduced the LC3- and GABARAP-puncta to the background level
[3]; Cherry fusion, FIG. 8, embryo
  SQST-1::GFP aggregates: a large number of SQST-1::GFP aggregates accumulated
[3]; Cherry fusion, FIG. 8, larvae
  SQST-1::GFP aggregates: a large number of SQST-1::GFP aggregates
[3]; Cherry fusion, nfya-1 promoter (ubiquitous), multiple tissues, embryonic to adult stages
  SQST-1::GFP aggregates: accumulated a large number of SQST-1::GFP aggregates
[3]; col-19 promoter (hypodermal cells from young adult stage onwards), adult
  SQST-1::GFP aggregates: adult-specific accumulation of SQST-1::GFP aggregates
[3]; col-19 promoter, embryonic to L4 larval stages (no peptide expression yet), listed as AnkB WT
  SQST-1::GFP aggregates: no aggregates were found; also recorded: no SQST-1::GFP aggregates
[3]; mCherry fusion, hypodermal cells, embryo (FIG. 9)
  SQST-1::GFP aggregates: a large number of SQST-1::GFP aggregates accumulate
[3]; mCherry fusion, hypodermis, L4 larvae (FIG. 9)
  SQST-1::GFP aggregates: a large number of SQST-1::GFP aggregates accumulate
[3]; myo-3 promoter, muscle cells, L4 larvae
  SQST-1::GFP aggregates: SQST-1::GFP aggregates accumulate
[3]; myo-3 promoter, muscle cells, L4 larvae (FIG. 10W-Y), listed as AnkB WT
  dependence of SQST-1::GFP aggregates on peptide expression level: correlate with the degree of autophagy inhibition; also recorded: increases with increasing expression
[3]; myo-3 promoter, muscle, embryo
  SQST-1::GFP aggregates: a large number of SQST-1::GFP aggregates accumulate
[3]; tissue-specific promoters myo-3, y37A1B.5, vha-6, embryonic to adult stages
  SQST-1::GFP aggregates: a large number of SQST-1::GFP aggregates accumulated
[3]; vha-6 promoter, intestine cells, embryo
  SQST-1::GFP aggregates: SQST-1::GFP aggregates accumulate
[3]; vha-6 promoter, intestine cells, larvae (FIG. 10S, 10T)
  SQST-1::GFP aggregates: SQST-1::GFP aggregates accumulate
[9]; Pmyo-3::ch:: fusion (muscle)
  Median lifespan: 18.12 days
[9]; Pnfya-1::Cherry fusion
  life span compared to animals expressing Cherry::AnkB WR: dramatically shortened the life span
[9]; Pnfya-1::ch:: fusion (ubiquitous)
  Median lifespan: 16.32 days
[9]; Pvha-6::ch:: fusion (intestine)
  Median lifespan: 18.87 days
[9]; Py37a1b.5::ch:: fusion (hypodermal cells)
  Median lifespan: 16.64 days
[9]; expressed in hypodermal cells
  mean life span: slightly reduced the mean life span
[9]; expressed in muscle cells and intestinal cells
  life span compared to animals expressing Cherry::AnkB WR: did not significantly reduce the life span
[4]; purified LGG-2
  binding to LGG-2 (in words): binds very strongly
[10]
  additional time for embryos to develop into L1 larvae compared to AnkB WR: approximately two more hours
  additional time to develop into young adults compared to AnkB WR: ~6 h
  embryos hatched (hatch rate): 60.8%
[5]
  LC3-positive puncta number: reduced the LC3- and GABARAP-puncta to the background level
[1]; ITC
  affinity to GABARAP higher than AnkG LIR: about 10 fold
[6]
  binding to LGG-1 (in words): binds very strongly
[7]
  p62-positive puncta versus mCherry vector control: dramatically increased
